Results published in patent US12678433B2, “Compounds for treatment of hemolysis-and inflammasome-associated diseases” (New York Blood Center, Inc., priority 2020, dated 2026).

How the values were obtained:
Format in all cases: cell-based, human
[1] = tested on: CD27+ memory B cells from healthy donors; experiment: 7-day stimulated memory B cell culture; conditions: different doses of hemin, 7 days
Source text: FIG. 6A-G. Effect of heme on memory plasmablast differentiation and IgG class-switch B cell development. FIG. 6A: Gating strategy for single live B cell analysis after culture. FIG. 6B: Fold change in CD38+ plasmablast cells in 7-day stimulated HD purified CD27+ memory B cells (as described for naïve B cell cultures in FIG. 1) in the presence of different doses of hemin relative to no hemin treatment. FIG. 6C: Histogram showing IgG expression levels in CD38+ plasmablasts from naïve B cell stimulated cultures. FIG. 6D: Fold change of IgG+ cell frequency in CD38+ plasmablasts in the presence of 2.5 μM or 5 μM hemin relative to no hemin treatment in stimulated naïve B cells from HD, Allo(−) and Allo(+) SCD patients. FIG. 6E: Naïve B cells from HD were cultured with 20% SCD patients' sera from Allo(−) or Allo(+) patients and stimulated with B cell activation cocktail for 7 days as described. Frequency of CD38+ plasmablasts is shown. FIG. 6F: Fold change of proliferated B cell frequency (within total, live B cells) in the presence of 2.5 μM or 5 μM hemin relative to no hemin treatment in stimulated naïve B cells from HD, Allo(−) and Allo(+) SCD patients. FIG. 6G: The change and fold change of live cell frequency in total 7-day stimulated HD B cell in the presence of different concentrations of hemin.
Cell isolation and culture.

[2] = tested on: naïve B cells from Allo(−) and Allo(+) SCD patients; experiment: 7-day stimulated naïve B cell culture from SCD patients; conditions: for inhibition of plasmablast B cell differentiation: heme 5 μM
Description: Human samples. All studies were approved by the institutional Review Boards of the New York Blood Center (NYBC) and Montefiore Health Center. […] The blood samples from SCD patients were processed within 18 hours after collection. For circulating DOCK8 expression studies in healthy controls, peripheral blood samples from de-identified, race-matched healthy donors were used. Leukocyte enriched products from de-identified healthy donors were used for purification of B cells for in vitro culture studies.
Cell isolation and culture. Peripheral blood mononuclear cells (PBMCs) were prepared by Ficoll (GE Healthcare) density gradient centrifugation from healthy donor leukopak products as well as from sickle peripheral blood apheresis waste bags. Human naïve and memory B cells were isolated from PBMCs using a human memory B Cell Isolation Kit (Miltenyi Biotec) by collecting CD27− B cells (naïve B cells) and CD27+ B cell (memory B cells) separately. […] In addition, heme and various inhibitors were added to the cultures at the start point and incubated for 7 days.
Cultured cells: stimulated B cells were transferred into U bottom 96 well plate and washed with 200 μl MACS buffer (D-PBS containing 0.5% BSA and 2 mM EDTA) at 300×g for 5 min at 4° C. After one wash, cells were stained for surface expression of CD19, CD38, CD27 using 25 μl staining buffer (anti-CD19, CD38, CD27 antibodies, diluted 200 fold with MACS buffer) for 30 min at 4° C. After one wash with 200 μl MACS buffer, cells were resuspended in 100 μl D-PBS and 50 μl Fixable Viability Dye eFluor™ 780 (1000 fold diluted with D-PBS, Thermo Fisher Scientific) was added for dead cell detection for 5 min at room temperature. Cells were washed one time with MACS buffer and 100 μl D-DPS was added just before flow cytometric analysis (LSRFortessa flow cytometer, BD Bioscience). For intracellular staining of IgG, Blimp-1 and HO-1, samples were first washed with 200 μl MACS buffer before addition of 150 μl Fixation/Permeabilization buffer (Thermo Fisher Scientific) for 45 min at 4° C. After fixation, samples were washed twice with 1× Permeabilization buffer (Thermo Fisher Scientific) and stained with 25 μl intracellular staining buffer (anti-human IgG, DOCK8, Blimp-1, HO-1 antibodies, diluted 200 fold with 1× Permeabilization buffer) for 45 min at 4° C., after which the cells were washed twice with Permeabilization buffer and 100p D-DPS was added prior to flow cytometric analysis.

DOCK8 = DOCK8 expression and DOCK8hi/DOCK8lo subsets in stimulated B cells; conditions: heme 5 μM
Source text: We next tested the effect of cell-free heme on DOCK8 signaling during B cell differentiation. […] Heme treatment led to inhibition of CD27^hiBlimp-1^+ plasma cell differentiation (FIG. 2D, p=0.0195).

In the case of `C=CC1=C(C)c2cc3[n-]c(cc4[n-]c(cc5nc(cc1n2)C(C)=C5C=C)c(C)c4CCC(=O)O)c(CCC(=O)O)c3C.[Fe+2]` [heme, iron(III) complex of protoporphyrin IX], the “effect on memory B cell proliferation or differentiation” value [1] is reported as “no effect”, the “effect on B cell proliferation, Allo(−) versus Allo(+) patients” value ([2]; 2.5 or 5 μM hemin) is reported as “did not differ” and the “DOCK8hi B cells and CD27hiBlimp-1+ plasma cell differentiation” value ([2]; Allo(+) SCD patients) is reported as “not”. For the same molecule, the “inhibition of plasmablast B cell differentiation” value ([2]; Allo(+) SCD patients) was 16%±9.7%, the “DOCK8hi B cells and CD27hiBlimp-1+ plasma cell differentiation” value ([2]; Allo(−) SCD patients) was “inhibited” and the “inhibition of plasmablast B cell differentiation” value ([2]; Allo(−) SCD patients) was 58.6%±7.3%. The “reduction in DOCK8hi subset” value (DOCK8) was 61.6%±6.5% and the “reduction in DOCK8lo subset” value (DOCK8) was 34.1%±5.9%.
